Source: ChEMBL document CHEMBL1135740, “Design, synthesis, and activity of a novel series of factor Xa inhibitors: optimization of arylamidine groups” (J Med Chem, 2002)

What was measured:
Serine protease 1 = target: T1, Serine protease 1 (Bos taurus, UniProt P00760); test: Inhibitory constant against bovine trypsin for general specificity against serine proteases
T1 sequence (P00760 whole entry): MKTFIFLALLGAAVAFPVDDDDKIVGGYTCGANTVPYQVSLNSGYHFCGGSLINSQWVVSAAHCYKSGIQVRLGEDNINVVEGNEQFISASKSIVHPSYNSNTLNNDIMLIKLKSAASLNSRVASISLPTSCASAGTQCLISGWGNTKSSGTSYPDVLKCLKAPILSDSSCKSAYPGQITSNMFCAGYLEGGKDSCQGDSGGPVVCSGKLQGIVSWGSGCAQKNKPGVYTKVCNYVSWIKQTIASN

Prothrombin = Prothrombin (Homo sapiens, UniProt P00734); test: Inhibitory constant against human coagulation factor II (thrombin) for selectivity within coagulation cascade
Coagulation factor X = Coagulation factor X (Homo sapiens, UniProt P00742); test: Inhibitory constant against human coagulation factor Xa (fXa)
Coagulation factor X, sequence (P00742 41-179 limits assumed): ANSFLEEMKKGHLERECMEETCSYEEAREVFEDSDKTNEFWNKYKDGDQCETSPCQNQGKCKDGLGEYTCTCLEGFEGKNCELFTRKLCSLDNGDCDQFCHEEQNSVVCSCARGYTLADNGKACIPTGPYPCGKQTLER
Coagulation factor X, sequence (P00742 235-488 limits assumed): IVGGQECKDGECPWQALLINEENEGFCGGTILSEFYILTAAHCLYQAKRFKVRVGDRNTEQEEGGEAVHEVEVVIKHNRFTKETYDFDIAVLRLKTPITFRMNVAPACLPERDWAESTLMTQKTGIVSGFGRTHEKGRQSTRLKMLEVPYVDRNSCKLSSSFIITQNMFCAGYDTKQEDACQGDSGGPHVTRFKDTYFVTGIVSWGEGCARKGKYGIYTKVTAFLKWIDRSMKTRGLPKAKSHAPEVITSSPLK

SMILES	Ki (Serine protease 1) [nM]	Ki (Prothrombin) [nM]	Ki (Coagulation factor X) [nM]
Cn1ccnc1-c1cccc(Oc2cc(C(=O)O)cc(Oc3cc(C(=N)N)ccc3O)n2)c1	650	–	–
Cc1c(F)c(Oc2cccc(C(=N)N)c2)nc(Oc2cccc(-n3ccnc3)c2)c1F	4800	> 5000	125
COc1cc(C(=N)N)cc(Oc2nc(Oc3cccc(C(=O)N(C)C)c3)c(F)c(C)c2F)c1OC	> 5000	> 5000	180
Cc1nccn1-c1cccc(Oc2cc(C(=O)O)cc(Oc3cc(C(=N)N)ccc3O)n2)c1	580	680	8
COc1cccc(Oc2nc(Oc3cccc(C(=N)N)c3)c(F)c(C)c2F)c1	–	1800	1350
Cc1c(F)c(Oc2cccc(C(=N)N)c2)nc(Oc2cccc(C(=O)Nc3ccccc3)c2)c1F	–	> 5000	> 5000
COc1cc(C(=O)N(C)C)cc(Oc2nc(Oc3cccc(C(=N)N)c3)c(F)c(C)c2F)c1OC	–	–	> 5000
COc1ccc(C(=N)N)cc1Oc1nc(Oc2cccc(C(=O)N(C)C)c2)c(F)c(C)c1F	–	–	720
COc1cc(Oc2nc(Oc3cccc(C(=O)N(C)C)c3)c(F)c(C)c2F)c(O)c(C(=N)N)c1	> 5000	> 5000	> 5000
Cc1c(F)c(Oc2cccc(C(=N)N)c2)nc(Oc2cccc(C(=O)N(C)Cc3ccccc3)c2)c1F	–	–	2400
Cc1c(F)c(Oc2cccc(C(=N)N)c2)nc(Oc2cccc(C(=O)O)c2)c1F	> 5000	> 5000	5000
CN(C)C(=O)c1cccc(Oc2cc(C(=O)O)cc(Oc3cccc(C(=N)N)c3)n2)c1	730	> 5000	263
COc1cc(Oc2nc(Oc3cccc(C(=N)N)c3)c(F)c(C)c2F)cc(C(=O)N(C)C)c1	750	> 5000	140
CCN(CC)c1cccc(Oc2nc(Oc3cccc(C(=N)N)c3)c(F)c(C)c2F)c1	2100	730	400
Cc1c(F)c(Oc2cccc(C(=N)N)c2)nc(Oc2cccc(C(O)C(N)=O)c2)c1F (configuration not stated)	–	–	370
COc1ccc(C(=N)N)cc1Oc1nc(Oc2cccc(N(C)C)c2)c(F)c(C)c1F	–	–	1400
Cc1c(F)c(Oc2cccc(C(=N)N)c2)nc(Oc2cccc(C(=O)N(C)C)c2O)c1F	–	–	4500
Cc1c(F)c(Oc2cccc(C(=O)N(C)C)c2)nc(Oc2cc(C(=N)N)ccc2O)c1F	–	–	1.8

SMILES	Ki (Serine protease 1) [nM]	Ki (Prothrombin) [nM]	Ki (Coagulation factor X) [nM]
Cc1c(F)c(Oc2cccc(C(=N)N)c2)nc(Oc2cc(O)cc(C(=O)N(C)C)c2)c1F	1900	740	> 5000
N=C(N)c1ccc(O)c(Oc2cc(C(=O)O)cc(Oc3cccc(NCCN)c3)n2)c1	350	3400	78
Cc1c(F)c(Oc2cccc(CCC(N)=O)c2)nc(Oc2cccc(C(=N)N)c2)c1F	> 5000	–	700
Cc1c(F)c(Oc2cccc(NS(C)(=O)=O)c2)nc(Oc2cccc(C(=N)N)c2)c1F	1900	4900	3800
Cc1c(F)c(Oc2cccc(C(=N)N)c2)nc(Oc2cc(C(=O)N(C)C)cc(C(=O)N(C)C)c2)c1F	1600	> 5000	160
Cc1ccc(N(C)C)cc1Oc1nc(Oc2cccc(C(=N)N)c2)c(F)c(C)c1F	> 5000	> 5000	> 5000
Cc1c(F)c(Oc2cccc(C(=O)N(C)C)c2)nc(Oc2cc(C(=N)N)ccc2NS(=O)(=O)C(F)(F)F)c1F	–	–	> 5000
Cc1c(F)c(Oc2cccc(C(=N)N)c2)nc(Oc2cccc(N3CCOCC3)c2)c1F	2000	> 5000	650
CCN(CC)C(=O)c1cccc(Oc2nc(Oc3cccc(C(=N)N)c3)c(F)c(C)c2F)c1	–	–	690
Cc1cn(C)c(-c2cccc(Oc3cc(C(=O)O)cc(Oc4cc(C(=N)N)ccc4O)n3)c2)n1	470	880	8.4
Cc1c(F)c(Oc2cccc(C(=N)N)c2)nc(Oc2cccc(C(=O)N3CCN(C)CC3)c2)c1F	–	–	> 5000
COc1ccc(C(=N)N)c(OC)c1Oc1nc(Oc2cccc(N(C)C)c2)c(F)c(C)c1F	–	–	> 5000
CNC(=O)c1cccc(Oc2nc(Oc3cccc(C(=N)N)c3)c(F)c(C)c2F)c1	–	–	1200
Cc1c(F)c(Oc2cccc(C(=O)N(C)C)c2)nc(Oc2cccc(C(=N)N)c2O)c1F	> 5000	> 5000	> 5000
COc1cc(Oc2nc(Oc3cccc(C(=O)N(C)C)c3)c(F)c(C)c2F)cc(C(=N)N)c1	–	–	2700
Cc1c(F)c(Oc2cccc(C(=N)N)c2)nc(Oc2cccc(C(=O)N3CCOCC3)c2)c1F	> 5000	> 5000	1400
Cc1ccc(C(=N)N)cc1Oc1nc(Oc2cccc(N(C)C)c2)c(F)c(C)c1F	–	–	1200
